Assay results: US20160274087A1, “SCREENING ASSAY FOR AGENTS THAT INFLUENCE BETA CELL NUMBER AND/OR PHENOTYPE” (VRIJE UNIVERSITEIT BRUSSEL, priority 2013, published 2016)

Key:
alpha cells = experiment: Alpha cell numbers in cultured dissociated rat islet cells; format: cell-based; conditions: HC-containing medium; control 40±3%
Excerpt: We next tested cell type-specificity of HC-induced proliferation by using dissociated rat islet cells containing 15-20% alpha cells and 10-15% other cell types. […] Non-endocrine pancreatic cells were virtually undetectable on day 15, presumably died out due to the serum-free culture conditions.

[1] = biological target: T1, mineralocorticoid receptor (MR) (Homo sapiens, UniProt P08235); conditions: cited from earlier work
T1 sequence (P08235 1-984): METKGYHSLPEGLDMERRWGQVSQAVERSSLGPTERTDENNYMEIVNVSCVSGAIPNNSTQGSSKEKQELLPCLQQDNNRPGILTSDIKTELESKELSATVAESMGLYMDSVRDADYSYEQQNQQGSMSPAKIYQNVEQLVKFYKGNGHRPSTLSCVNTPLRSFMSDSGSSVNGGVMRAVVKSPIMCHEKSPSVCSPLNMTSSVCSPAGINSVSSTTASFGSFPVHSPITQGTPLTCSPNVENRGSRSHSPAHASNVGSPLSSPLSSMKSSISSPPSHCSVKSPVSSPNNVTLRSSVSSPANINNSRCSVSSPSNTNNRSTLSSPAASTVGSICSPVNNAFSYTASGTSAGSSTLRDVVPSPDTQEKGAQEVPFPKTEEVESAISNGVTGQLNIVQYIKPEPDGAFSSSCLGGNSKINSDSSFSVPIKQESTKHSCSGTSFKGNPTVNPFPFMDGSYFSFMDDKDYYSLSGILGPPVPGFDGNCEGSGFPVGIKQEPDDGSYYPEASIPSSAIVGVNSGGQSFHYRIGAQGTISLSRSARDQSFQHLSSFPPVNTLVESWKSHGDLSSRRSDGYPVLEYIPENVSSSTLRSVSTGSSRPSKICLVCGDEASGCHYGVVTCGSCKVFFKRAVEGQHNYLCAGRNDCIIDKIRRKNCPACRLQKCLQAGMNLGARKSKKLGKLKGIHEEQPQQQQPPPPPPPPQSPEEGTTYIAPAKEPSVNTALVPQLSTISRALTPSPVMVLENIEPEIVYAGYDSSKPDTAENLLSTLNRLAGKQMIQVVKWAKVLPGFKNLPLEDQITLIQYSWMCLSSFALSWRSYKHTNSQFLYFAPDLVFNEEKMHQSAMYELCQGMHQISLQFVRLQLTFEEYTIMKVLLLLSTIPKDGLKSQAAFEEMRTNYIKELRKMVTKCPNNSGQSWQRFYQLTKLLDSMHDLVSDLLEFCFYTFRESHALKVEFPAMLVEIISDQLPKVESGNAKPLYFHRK

INS1 832/13 cell line = experiment: Proliferation of INS1 832/13 cell line in serum-free medium; format: cell-based; conditions: serum-free culture medium; data not shown
rat beta cells = experiment: Cellular insulin content, insulin release and glucose-stimulated insulin secretion of cultured beta cells; format: cell-based; conditions: for Insulin Content Day 15: HC
Method: Beta cells were FACS-purified from islet-cell enriched suspensions (Pipeleers et al., 1985) prepared from neonatal (2-3 days-old) and adolescent or adult (8 or 40-week-old, male) Wistar rats (Janvier Bioservices, France); their purity was, respectively 70-75% and over 90%. Sorted cells were counted in a hemocytometer, seeded (day 0) and cultured for up to 15 days in serum-free Ham's-F10 medium at 5, 10 or 20 mmol/l glucose, supplemented with 2 mmol/l L-glutamine, 50 μM 3-isobutyl-1-methylxanthine, 0.5% Albumax-I, penicillin (100 U/ml) and streptomycin (0.1 mg/ml). The 10 mmol/l glucose condition is known to maintain beta cell survival over 9-days (Ling et al., 1994; Ling and Pipeleers, 1994). Medium and cells were retrieved after selected culture periods and assayed for insulin content; data were expressed as a function of the number of living beta cells that was determined in parallel wells.

C[C@]12CCC(=O)C=C1CC[C@@H]1[C@@H]2[C@@H](O)C[C@@]2(C)[C@H]1CC[C@]2(O)C(=O)CO [Hydrocortisone, hydrocortisone]
alpha cell numbers after 15-day culture (% of the starting level) (alpha cells): 57±1%
Relative Potencies MR [1]: 1
proliferation of INS1 832/13 cell line (INS1 832/13 cell line): does not induce the proliferation
Insulin Content Day 15 (rat beta cells; 9 days, 6 days, control): 33.1 ± 2.9 ng/10^3 cells
Insulin Content Day 15 (rat beta cells; 15 days, control 35.3 ± 3.6): 9.3 ± 0.7 ng/10^3 cells
Insulin Content Day 9 (rat beta cells; continuous HC, control 23.7 ± 0.9): 14.0 ± 1.4 ng/10^3 cells
loss of insulin content on day 9 (rat beta cells; continuous incubation with HC): 56%
loss of insulin content on day 15 (rat beta cells; continuous incubation with HC): more than 70%
